Measurements as given in US20250326749A1, “COMPOUNDS, COMPOSITIONS, AND METHODS OF USING THEREOF” (Sionna Therapeutics Inc., priority 2022, published 2025).

Biological target: T1, ΔF508-CFTR (Homo sapiens, UniProt P13569, DEL508-508)
T1 construct: expressed in transfected cells; host or cells: CFSMEo- (human CF submucosal gland epithelial cells, ΔF508/Q2X), transiently transfected by nucleofection
Assay: ΔF508-CFTR-HRP trafficking assay (cell surface expression of ΔF508-CFTR)
Format: cell-based
Details: CFSMEo- cells transiently transfected with ΔF508-CFTR-HRP; test agent 3 μM, 48 h; HRP chemiluminescence
Text: Test agents were screened for their effect on cell surface expression of ΔF508-CFTR using the ΔF508-CFTR-HRP trafficking assay. For this assay, a ΔF508-CFTR expression construct was designed with an in-frame insertion of a horseradish peroxidase (HRP) tag into the 4th extracellular loop of CFTR. The HRP tag would be presented extracellularly, in cells transiently transfected with the ΔF508-CFTR-HRP construct, following correction of the ΔF508-CFTR trafficking defect. The quantity of ΔF508-CFTR-HRP expressed on the plasma membrane could therefore be determined by measuring an HRP-dependent signal after the application of a cell-impermeable HRP substrate.
In brief, CF submucosal gland epithelial cells (CFSMEo-), derived from the airways of a CF patient (ΔF508/Q2X) and provided by Dr. Dieter Gruenert, University of California-San Francisco, were cultured at 37° C. with 5% CO2 in minimum essential medium (MEM) with Earle's salt and nonessential amino acids, supplemented with 10% (volume per volume [v/v]) fetal bovine serum, 2 mM L-glutamine and 1× (v/v) penicillin/streptomycin and grown in tissue culture-treated flasks coated with an extracellular matrix (ECM) cocktail consisting of 10 μg/mL human fibronectin, 30 μg/mL bovine collagen type I, and 100 μg/mL bovine serum albumin in LHC basal medium. These CFSMEo^− cells were transiently transfected with 4 μg of the ΔF508-CFTR-HRP expression construct using the Lonza 4D-Nucleofector Core unit (Lonza, Catalogue No. AAF-1002B) with the X unit (Lonza, Catalogue No. AAF-1002X) and SF Cell Line 4D-Nucleofector X Kit L (Lonza, Catalogue No. V4XC-2024) according to the manufacturer's instructions and plated at 1.2×10^4 cells/well onto collagen-coated, 96-well plates (Corning Inc.). Twenty-four h post-transfection, cells were treated with test agents, solubilized in DMSO at a concentration of 3 μM in replicates of 3, and allowed to incubate for 48 h. To detect HRP expression, cell culture media was removed, cells were washed with PBS and 100 μL of Luminata Forte HRP chemiluminescent substrate (EMD Millipore, Burlington, MA) was added to each well. Following a 5-minute incubation, chemiluminescence was measured in relative luminescent units (RLUs) using an EnVision plate reader (Perkin Elmer, Waltham, MA).
The ΔF508-CFTR-HRP trafficking data was normalized to the vehicle treated control (0.3% DMSO), followed by calculation of the mean, standard deviation, and standard error. If the test agent increased cell surface expression of ΔF508-CFTR-HRP relative to the vehicle-treated control, then that test agent was considered a ΔF508-CFTR corrector. Based on the description above, the biological activity of the examples in this disclosure is collected in Table 2.

T1 sequence (P13569 with tags, fused parts or gaps DEL508-508): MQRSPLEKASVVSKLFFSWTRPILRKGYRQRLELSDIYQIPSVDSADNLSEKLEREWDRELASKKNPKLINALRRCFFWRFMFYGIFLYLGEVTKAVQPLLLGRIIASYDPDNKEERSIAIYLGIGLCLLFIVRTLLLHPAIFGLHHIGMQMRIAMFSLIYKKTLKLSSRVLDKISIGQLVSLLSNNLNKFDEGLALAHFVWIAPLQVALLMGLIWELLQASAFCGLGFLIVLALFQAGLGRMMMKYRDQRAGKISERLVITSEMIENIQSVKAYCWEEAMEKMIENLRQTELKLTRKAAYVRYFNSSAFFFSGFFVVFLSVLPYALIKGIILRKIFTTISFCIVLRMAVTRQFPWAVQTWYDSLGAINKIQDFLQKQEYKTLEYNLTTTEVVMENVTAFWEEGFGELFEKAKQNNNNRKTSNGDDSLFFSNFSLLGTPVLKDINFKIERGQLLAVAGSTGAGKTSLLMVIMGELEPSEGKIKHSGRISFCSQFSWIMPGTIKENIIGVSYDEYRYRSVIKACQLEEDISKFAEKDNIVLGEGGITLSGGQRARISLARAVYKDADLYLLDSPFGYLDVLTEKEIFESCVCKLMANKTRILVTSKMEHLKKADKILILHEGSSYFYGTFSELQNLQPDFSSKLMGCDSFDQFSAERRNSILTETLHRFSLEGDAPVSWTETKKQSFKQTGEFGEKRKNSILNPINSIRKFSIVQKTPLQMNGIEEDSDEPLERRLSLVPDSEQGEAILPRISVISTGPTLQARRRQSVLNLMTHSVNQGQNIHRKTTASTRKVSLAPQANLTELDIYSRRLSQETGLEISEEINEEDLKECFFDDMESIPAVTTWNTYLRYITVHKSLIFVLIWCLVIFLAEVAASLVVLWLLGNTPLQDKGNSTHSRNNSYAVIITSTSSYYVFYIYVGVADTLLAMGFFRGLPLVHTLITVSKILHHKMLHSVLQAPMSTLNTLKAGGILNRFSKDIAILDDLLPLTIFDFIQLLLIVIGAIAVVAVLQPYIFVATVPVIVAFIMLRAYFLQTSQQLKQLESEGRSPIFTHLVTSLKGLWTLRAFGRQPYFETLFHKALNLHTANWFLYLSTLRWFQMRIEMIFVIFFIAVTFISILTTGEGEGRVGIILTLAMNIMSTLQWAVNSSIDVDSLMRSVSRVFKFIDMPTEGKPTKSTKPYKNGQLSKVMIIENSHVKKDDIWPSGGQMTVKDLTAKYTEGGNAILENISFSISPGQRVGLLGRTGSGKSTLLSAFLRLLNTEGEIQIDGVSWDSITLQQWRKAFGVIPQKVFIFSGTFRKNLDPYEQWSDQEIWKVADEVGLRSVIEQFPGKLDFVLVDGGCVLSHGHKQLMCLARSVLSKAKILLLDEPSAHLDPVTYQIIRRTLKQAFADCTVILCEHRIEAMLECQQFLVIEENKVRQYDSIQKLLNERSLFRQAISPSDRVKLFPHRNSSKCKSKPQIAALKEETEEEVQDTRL

| SMILES | RLUs: ΔF508-CFTR-HRP trafficking data normalized to the vehicle treated control (0.3% DMSO) |
| --- | --- |
| C[C@H](Oc1cncc(-n2nc(C(F)(F)F)c3c2[C@@H](C(=O)N2CCC(C(=O)O)CC2)CCC3)c1)c1ccc2c(c1)OC(F)(F)O2 (single isomer, unassigned) [122 (P1)] | C (RLU 0.0 μM-3.5 μM) |
| C[C@H](Oc1cccc(-n2nc(C(F)(F)F)c3c2C(S(=O)(=O)c2ccc(C(=O)O)cc2)CCC3)c1)c1ccc2c(c1)OC(F)(F)O2 (stereo partly drawn) [Example 71, 4-[[1-[3-[(1S)-1-(2,2-difluoro-1,3-benzodioxol-5-yl)ethoxy]phenyl]-3-(trifluoromethyl)-4,5,6,7-tetrahydroindazol-7-yl]sulfonyl]benzoic acid] | C (RLU 0.0 μM-3.5 μM) |
| C[C@H](Oc1cc(-n2nc(C(F)(F)F)c3c2[C@@H](Oc2ccc(C(=O)O)cc2)CCC3)ccc1F)c1ccc2c(c1)OC(F)(F)O2 (single isomer, unassigned) [Example 36] | C (RLU 0.0 μM-3.5 μM) |
| C[C@H](Oc1cncc(-n2nc(C(F)(F)F)c3c2[C@@H](Oc2ccc(C(=O)O)cc2)CCC3)c1)c1ccc2c(c1)OC(F)(F)O2 (single isomer, unassigned) [Example 27] | C (RLU 0.0 μM-3.5 μM) |
| C[C@H](Oc1cncc(-n2nc(C(F)(F)F)c3c2[C@H](O[C@H]2CC[C@H](C(=O)O)CC2)CCC3)c1)c1ccc2c(c1)OC(F)(F)O2 (single isomer, unassigned) [Example 67] | A (RLU 5.0 μM-10 μM) |
| CC(c1ccc2c(c1)OC(F)(F)O2)S(=O)(=O)c1cccc(-n2nc(C(F)(F)F)c3c2C(Oc2ccc(C(=O)O)cc2)CCC3)c1 (stereo not drawn) [Example 118, 4-[[1-[3-[1-(2,2-difluoro-1,3-benzodioxol-5-yl)ethylsulfonyl]phenyl]-3-(trifluoromethyl)-4,5,6,7-tetrahydroindazol-7-yl]oxy]benzoic acid] | C (RLU 0.0 μM-3.5 μM) |
| C[C@H](Oc1cc(-n2nc(C(F)(F)F)c3c2[C@@H](Oc2ccc(C(=O)O)cc2)CN(C)C3)ccn1)c1ccc2c(c1)OC(F)(F)O2 (single isomer, unassigned) [115 (P1)] | B (RLU 3.5 μM-5.0 μM) |
| C[C@H](Oc1cc(-n2nc(C(F)(F)F)c3c2[C@@H](OC24CCC(C(=O)O)(CC2)CC4)CCC3)ccn1)c1ccc2c(c1)OC(F)(F)O2 (single isomer, unassigned) [Example 64] | A (RLU 5.0 μM-10 μM) |
| C[C@H](Oc1cc(-n2nc(C(F)(F)F)c3c2[C@H](OC24CCC(C(=O)O)(CC2)CC4)CCC3)cnc1F)c1ccc2c(c1)OC(F)(F)O2 (single isomer, unassigned) [Example 60] | C (RLU 0.0 μM-3.5 μM) |
| C[C@@H](Oc1cccc(-n2nc(C(F)(F)F)c3c2C(OC24CC(C(=O)O)(C2)C4)CCC3)c1)c1ccc2c(c1)OC(F)(F)O2 (stereo partly drawn) [Example 41, 3-[[1-[3-[(1R)-1-(2,2-difluoro-1,3-benzodioxol-5-yl)ethoxy]phenyl]-3-(trifluoromethyl)-4,5,6,7-tetrahydroindazol-7-yl]oxy]bicyclo[1.1.1]pentane-1-carboxylic acid] | A (RLU 5.0 μM-10 μM) |
| C[C@H](Oc1cc(-n2nc(C(F)(F)F)c3c2[C@H](OC24CCC(C(=O)O)(CC2)CC4)CCC3)cc(F)n1)c1ccc2c(c1)OC(F)(F)O2 (single isomer, unassigned) [81 (P1)] | A (RLU 5.0 μM-10 μM) |
| C[C@H](Nc1cc(-n2nc(C(F)(F)F)c3c2[C@@H](OC24CC(C(=O)O)(C2)C4)CCC3)ccc1F)c1cc2c(cc1F)OC(F)(F)O2 (single isomer, unassigned) [96 (P1)] | B (RLU 3.5 μM-5.0 μM) |
| C[C@H](Oc1nc(-n2nc(C(F)(F)F)c3c2[C@@H](O[C@H]2C[C@H](C(=O)O)C2)CCC3)ccc1F)c1cc2c(cc1F)OC(F)(F)O2 (single isomer, unassigned) [84 (P1)] | B (RLU 3.5 μM-5.0 μM) |
| C[C@H](Oc1cccc(-n2nc(C(F)(F)F)c3c2C(OC24CC(C(=O)O)(C2)C4)CCC3)c1)c1ccc2c(c1)OC(F)(F)O2 (single isomer, unassigned) [Example 42] | A (RLU 5.0 μM-10 μM) |
| CC[C@H](Oc1cc(-n2nc(C(F)(F)F)c3c2[C@@H](Oc2ccc(C(=O)O)cc2)CCC3)ccn1)c1ccc2c(c1)OC(F)(F)O2 (single isomer, unassigned) [Example 36k] | C (RLU 0.0 μM-3.5 μM) |
| C[C@H](Oc1cc(-n2nc(C(F)(F)F)c3c2[C@@H](OC24CC(C(=O)O)(C2)C4)CCC3)ccn1)c1ccc2c(c1)OC(F)(F)O2 [Example 51] | A (RLU 5.0 μM-10 μM) |
| C[C@H](Oc1cncc(-n2nc(C(F)(F)F)c3c2[C@@H](CN2CCC(C(=O)O)CC2)CCC3)c1)c1ccc2c(c1)OC(F)(F)O2 (single isomer, unassigned) [124 (P1)] | B (RLU 3.5 μM-5.0 μM) |
| C[C@H](Nc1cc(-n2nc(C(F)(F)F)c3c2[C@@H](OC24CC(c5nc(=O)o[nH]5)(C2)C4)CCC3)ccc1F)c1cc2c(cc1F)OC(F)(F)O2 (single isomer, unassigned) [103 (P1)] | B (RLU 3.5 μM-5.0 μM) |
| C[C@H](Oc1cncc(-n2nc(C(F)(F)F)c3c2[C@@H](Oc2ccc(C(=O)O)cc2)CCC3)c1)c1cc2c(cc1F)OC(F)(F)O2 (single isomer, unassigned) [Example 36e] | A (RLU 5.0 μM-10 μM) |
| C[C@H](Nc1cccc(-n2nc(C(F)(F)F)c3c2[C@H](OC24CC(C(=O)O)(C2)C4)CCC3)n1)c1ccc2c(c1)OC(F)(F)O2 (single isomer, unassigned) [100 (P2)] | C (RLU 0.0 μM-3.5 μM) |
| C[C@H](Oc1cc(-n2nc(C(F)(F)F)c3c2[C@@H](Oc2ccc(C(=O)O)cc2)CCC3)ccn1)c1cc2c(cc1F)OC(F)(F)O2 (single isomer, unassigned) [Example 36a] | A (RLU 5.0 μM-10 μM) |
| C[C@H](Oc1cc(-n2nc(C(F)(F)F)c3c2[C@H](O[C@H]2CC[C@H](C(=O)O)CC2)CCC3)cnn1)c1ccc2c(c1)OC(F)(F)O2 (single isomer, unassigned) [Example 56] | B (RLU 3.5 μM-5.0 μM) |
| C[C@H](Oc1cccc(-n2nc(C(F)(F)F)c3c2[C@@H](Oc2ccc(C(=O)O)cc2)CCC3)c1)c1ccc2c(c1)OC(F)(F)O2 (single isomer, unassigned) [Example 25] | B (RLU 3.5 μM-5.0 μM) |
| C[C@@H](Oc1cccc(-n2nc(C(F)(F)F)c3c2C(Oc2ccc(C(=O)O)cc2)CCC3)c1)c1cc2c(cc1F)OC(F)(F)O2 (stereo partly drawn) [Example 32, 4-[[1-[3-[(1R)-1-(2,2,6-trifluoro-1,3-benzodioxol-5-yl)ethoxy]phenyl]-3-(trifluoromethyl)-4,5,6,7-tetrahydroindazol-7-yl]oxy]benzoic acid] | B (RLU 3.5 μM-5.0 μM) |
| C[C@H](Oc1cc(-n2nc(C#N)c3c2[C@@H](Oc2ccc(C(=O)O)cc2)CCC3)ccc1F)c1ccc2c(c1)OC(F)(F)O2 (single isomer, unassigned) [Example 104] | B (RLU 3.5 μM-5.0 μM) |
| C[C@H](Nc1cc(-n2nc(C(F)(F)F)c3c2[C@H](NC24CC(C(=O)O)(C2)C4)CCC3)ccc1F)c1ccc2c(c1)OC(F)(F)O2 (single isomer, unassigned) [94 (P2)] | C (RLU 0.0 μM-3.5 μM) |
| C[C@H](Oc1cc(-n2nc(C(F)(F)F)c3c2C(Oc2ccc(C(=O)O)cc2)CCC3)ccn1)c1ccc2c(c1)OC(F)(F)O2 (stereo partly drawn) [Example 22, 4-[[1-[2-[(1S)-1-(2,2-difluoro-1,3-benzodioxol-5-yl)ethoxy]-4-pyridyl]-3-(trifluoromethyl)-4,5,6,7-tetrahydroindazol-7-yl]oxy]benzoic acid] | B (RLU 3.5 μM-5.0 μM) |
